# According to PubChem BioAssay AID1996:
# Conditions: buffer; pH 7.4; 200.0 µM
row,SMILES,solubility kinetic
1,CC(=O)c1c(O)c2cccc3c2n(c1=O)CCC3,> 36.5 µg/mL
2,Cc1cc(=O)[nH]c(SCCc2ccccc2)n1,26.5 µg/mL
3,Cc1cc(C)cc(NC(=O)CN2C(=O)C3CC=CCC3C2=O)c1 (stereo unspecified),> 46.9 µg/mL
4,NCC1(CC(=O)O)CCCCC1,> 25.7 µg/mL
5,COc1ccccc1NC(=O)CCN1C(=O)c2ccccc2C1=O,> 48.7 µg/mL
6,COc1ccc(OCCn2cc(C=O)c3ccccc32)cc1,14.4 µg/mL
7,CCN1C(=O)C(=Cc2cc(C)n(C3CC3)c2C)C(=O)N(CC)C1=S,2.8 µg/mL
8,CCCCc1nc2cc(C(=O)N(C)C3CCOCC3)ccc2o1,> 47.5 µg/mL
9,CCCn1cnc2scc(-c3ccc(OC)cc3)c2c1=O,13.9 µg/mL
10,O=c1[nH]c2ccc(S(=O)(=O)N3CCCC3)cc2[nH]1,> 40.1 µg/mL
11,CCN(C(=O)COC(=O)/C=C/c1ccco1)C1CCCCC1,39.1 µg/mL
12,O=C(c1ccc2nc[nH]c2c1)N1CCN(c2cccc(Cl)c2)CC1,42.7 µg/mL
13,CC1(NS(=O)(=O)c2ccc(Cl)s2)CCS(=O)(=O)C1 (stereo unspecified),> 49.5 µg/mL
14,O=C(O)CCSC1CC(=O)N(c2ccccc2)C1=O (stereo unspecified),> 41.9 µg/mL
15,C=CCn1cccc(C(=O)Nc2ccc(C)c(Cl)c2)c1=O,< 0.3 µg/mL
16,Cc1nc(C)c(/C(O)=C\c2nc3ccc([N+](=O)[O-])cc3oc2=O)o1,> 49.4 µg/mL
17,COc1ccc2[nH]c(C(=O)Nc3ccc(C)c(F)c3)cc2c1,0.7 µg/mL
18,COCCCNC(=O)c1cc2c(=O)n3cccc(C)c3nc2s1,6.3 µg/mL
19,CCOC(=O)c1oc2ccccc2c1NC(=O)CCl,10.8 µg/mL
20,COCCNC(=O)C(=O)Nc1ccc(Cl)cc1C,> 40.6 µg/mL
21,CCOC(=O)C1CCN(C/C=C/c2ccccc2[N+](=O)[O-])CC1,39.3 µg/mL
22,S=c1[nH]nc(Nc2ccccc2Cl)s1,> 36.6 µg/mL
23,O=C(COC(=O)c1ccc(S(=O)(=O)N2CCOCC2)cc1)NCc1ccccc1,8.6 µg/mL
24,COc1ccc2oc(=O)c(C(=O)NCc3ccc(F)cc3)cc2c1,0.8 µg/mL
25,Cc1ccc(C(=O)Nc2ccccc2N2CCCCC2)o1,2.8 µg/mL

row,SMILES,solubility kinetic
1,CC1CCC(NC(=O)c2cc(Cl)nc3ccccc23)CC1 (stereo unspecified),2.5 µg/mL
2,O=C(O)CC(Cc1ccc(Cl)cc1)C(=O)Nc1cc(Cl)ccc1Cl (stereo unspecified),42.1 µg/mL
3,Cc1ccc(C(=O)O/N=C(\N)c2ccccn2)cc1C,2.6 µg/mL
4,COc1ccc(C(C)NC(=O)C2CCCC2)cc1 (stereo unspecified),> 37.1 µg/mL
5,CCCCNCc1cc2ccccc2o1.Cl,31.7 µg/mL
6,COc1ccc(CCn2c([S-])nc3ccccc3c2=O)cc1.[Na+],1.5 µg/mL
7,O=c1c2ccccc2nc(/C=C/c2cccnc2)n1CCc1ccccc1,22.1 µg/mL
8,COc1cc(CNC(C)(C)C)ccc1OCC(=O)NC(C)(C)C,> 48.4 µg/mL
9,CCn1c(SCc2ccc(OC)c(F)c2)nc2ccccc2c1=O,< 0.4 µg/mL
10,COc1cc(SC)ccc1C(=O)NCCc1c[nH]c2ccccc12,6.1 µg/mL
11,CCN(CC(=O)Nc1c(F)cccc1F)C(=O)CCCc1c[nH]c2ccccc12,7.4 µg/mL
12,CC(=O)Nc1ccc(NC(=O)COC(=O)[C@@H]2CCCN2C(=O)c2cccs2)cc1,> 62.3 µg/mL
13,O=C(CNC(=O)c1ccco1)Nc1ccc(F)cc1,37 µg/mL
14,CCOC(=O)/C(=C\c1ccc(OC)c(OC)c1)C(=O)c1cccnc1,> 51.2 µg/mL
15,O=C1CN(C(=O)c2ccc(Cl)c([N+](=O)[O-])c2)c2ccccc2N1,> 49.8 µg/mL
16,CCC(C(=O)OC)(C(=O)OC)c1ccc([N+](=O)[O-])cc1,> 42.2 µg/mL
17,CCN1CCN(Cc2cccnc2)CC1,20.2 µg/mL
18,Cc1ccc(Cl)cc1Nc1nc(-c2cccnc2)cs1,0.2 µg/mL
19,Cc1ccccc1Nc1nc(N)nc(COC(=O)c2ccco2)n1,> 48.8 µg/mL
20,COc1ccc(Cl)cc1C(=O)Nc1cccnc1,22.1 µg/mL
21,O=C(Nc1nccs1)C1CC(=O)N(c2ccccc2)C1 (stereo unspecified),> 43.1 µg/mL
22,O=C(COC(=O)/C=C/c1cccc(Cl)c1)Nc1ccc(N2CCOCC2)cc1,3.2 µg/mL
23,Cc1cc(NC(=O)CSCC(=O)N2CCN(c3ccccc3)CC2)no1,> 56.2 µg/mL
24,COc1cc2[nH]c(C(=O)Nc3ccc(F)cc3)cc2c(OC)c1OC,2.4 µg/mL
25,NS(=O)(=O)c1cnccc1Nc1cccc(Br)c1,36.3 µg/mL

row,SMILES,solubility kinetic
1,CCC(C(=O)NCc1ccccc1OC)c1ccccc1 (stereo unspecified),32.6 µg/mL
2,CCCCNC(=O)C1CCCN(S(=O)(=O)CC)C1 (stereo unspecified),> 41.5 µg/mL
3,C=CCOc1ccc(/C=C2\SC(N3CCCCC3)=NC2=O)cc1,< 0.4 µg/mL
4,CC(=O)C1=C(C)OC(N)=C(C#N)C1c1cc([N+](=O)[O-])ccc1Cl (stereo unspecified),41.9 µg/mL
5,CCNC(=O)COc1cc(C)c(Br)c(C)c1,> 42.9 µg/mL
6,COc1ccc(C(=O)N2CCN(CCc3ccccn3)CC2)cc1.Cl,> 54.3 µg/mL
7,CCc1ccccc1NC(=O)CCN1C(=O)C2CC=CCC2C1=O (stereo unspecified),> 49 µg/mL
8,COc1ccc(Cc2nnc(-c3ccccc3)o2)cc1,> 39.9 µg/mL
9,CC1=Nc2cc(C(=O)O)ccc2Sc2c(C)ccc(C)c21,42.1 µg/mL
10,CCOc1ccc(CN(C)CC(=O)NCc2ccccc2)cc1,34.8 µg/mL
11,Nc1nc(Cl)cc(-c2ccccc2)n1,29.3 µg/mL
12,Cc1ccc(N2C(=O)C(Cl)=C(N3CCCCCC3)C2=O)cc1,10.6 µg/mL
13,CCc1cccc(CC)c1NC(=O)CN1CCc2cc(OC)c(OC)cc2C1,38.8 µg/mL
14,O=C(CNC(=O)c1cccc(F)c1)N/N=C/c1cccnc1,> 45 µg/mL
15,COCCn1c(SCC(=O)NC(=O)NC2CCCCC2)nc2ccccc2c1=O,4.6 µg/mL
16,O=C(/C=C/c1ccc(Cl)cc1)Nc1ccc(N2CCOCC2)cc1,< 0.4 µg/mL
17,CCCc1cnc(N2CCN(C(=O)c3ccc(OC)cc3)CC2)nc1,20.5 µg/mL
18,O=C(CN1C(=O)c2ccccc2C1=O)c1ccc(F)cc1,39.5 µg/mL
19,O=C(CN1C(=O)COc2ccc(Cl)cc21)NCC1CCCO1 (stereo unspecified),> 48.7 µg/mL
20,Cc1ccc(Nc2cc(C)nc3ccccc23)c(C)c1,> 39.4 µg/mL
21,COc1ccc(C2NC(=O)CCC2[N+](=O)[O-])cc1OC (stereo unspecified),> 42 µg/mL
22,COc1ccc(CNc2ccc(Br)cc2)cc1,< 0.6 µg/mL
23,c1ccc(-n2cnc3ccccc32)nc1,26.3 µg/mL
24,O=S(=O)(NC1CCCCCCC1)c1ccccc1,30 µg/mL
25,CCN(CC)S(=O)(=O)c1ccc(-c2csc(C)n2)s1,13.6 µg/mL

row,SMILES,solubility kinetic
1,COc1cccc(CNC(=O)N2CCN(c3ccccc3C)CC2)c1,15.3 µg/mL
2,O=C(NCc1cccnc1)Nc1cccc(Cl)c1,37.2 µg/mL
3,O=C(Nc1ccccc1N1CCOCC1)c1ccc2c(c1)OCCO2,5.6 µg/mL
4,CC(=O)c1c(C)cc(C)c(CSc2ccccn2)c1C,20.5 µg/mL
5,COc1cccc2c(=O)n(CC(=O)NCCc3ccccc3)ccc12,1.6 µg/mL
6,CC12CN3CC(C)(CN(C1)C3c1ccccc1)C2O (stereo unspecified),> 38.8 µg/mL
7,COc1ccccc1NS(=O)(=O)c1cccc2nsnc12,35 µg/mL
8,COC(=O)Cc1csc(NCc2ccccc2)n1,37.4 µg/mL
9,CCc1ccccc1NC(=O)c1cc(-c2ccc(OC)cc2)on1,< 0.3 µg/mL
10,Cc1ccccc1Cn1c(C)cc(C)c(C#N)c1=O,8.1 µg/mL
11,Cc1sc2ncnc(SCc3ccc(C(=O)O)cc3)c2c1C,> 49.6 µg/mL
12,CC1CC(C)CN(C(=O)COC(=O)/C=C/c2ccco2)C1 (stereo unspecified),> 43.7 µg/mL
13,CS(=O)(=O)N1CCN=C1SCc1cccc(F)c1,42.6 µg/mL
14,O=C1COc2ccc(C(=O)C[n+]3cccc(O)c3)cc2N1.[Cl-],> 48.1 µg/mL
15,COc1ccccc1CNC(=O)CCc1ccccc1,> 40.4 µg/mL
16,CC(=O)c1ccc(NC(=S)N2CCCC2)cc1,35.4 µg/mL
17,Cn1c(=O)c2c(ncn2CC(O)CNc2ccc(F)cc2)n(C)c1=O (stereo unspecified),> 52.1 µg/mL
18,O=C1CCCC(=O)N1c1ccc(NCCOCCO)c([N+](=O)[O-])c1,> 50.6 µg/mL
19,Cc1cc(Cl)n2c(nc3cc(F)c(F)cc32)c1C#N,4.7 µg/mL
20,O=c1cccc2n1CC1CNCC2C1 (stereo unspecified),> 28.5 µg/mL
21,N#CC1(NC(=O)CN2C(=O)NC(Cc3c[nH]c4ccccc34)C2=O)CCCCC1 (stereo unspecified),> 59 µg/mL
22,CN(C)c1ccc(CNc2ncnc3sccc23)cc1,29.7 µg/mL
23,Cc1nc(N2CCOCC2)[nH]c(=O)c1[N+](=O)[O-],33.1 µg/mL
24,O=C(Nc1ccc(CSc2ccccc2)cc1)c1ccco1,< 0.7 µg/mL
25,CCN(CC)c1ccc(NC(=O)c2ccc(S(=O)(=O)N3CCOCC3)cc2)cc1,4.7 µg/mL

row,SMILES,solubility kinetic
1,O=C1CSC(=S)N1c1cccc(Br)c1,2.9 µg/mL
2,CCCCc1c(O)nc(SCC(=O)N2CCCCC2)[nH]c1=O,> 48.8 µg/mL
3,Cc1ccc(NC(=O)C2CCCN2C(=O)OCc2ccccc2)c(C)c1 (stereo unspecified),18.5 µg/mL
4,ClC1(Cl)CC1CSc1nc2ccccc2[nH]1 (stereo unspecified),39.8 µg/mL
5,Cc1ccc(NC(=S)Nc2cccc3cnccc23)cc1,30 µg/mL
6,Cc1cc(C)cc(NC(=O)COC(=O)c2cc(C)oc2C)c1,< 0.6 µg/mL
7,COC(=O)Cn1cc(C(=O)C(C)(C)C)c2ccccc21,37.1 µg/mL
8,CC(CN1CCCCC1)OC(=O)c1ccc2c(c1)OCCO2.Cl (stereo unspecified),> 51.3 µg/mL
9,O=C(NC1CCCCC1)C1CCCN1S(=O)(=O)c1ccc(F)cc1 (stereo unspecified),8 µg/mL
10,COc1ccc(CCNC2CC(=O)N(C3CCCCC3)C2=O)cc1OC (stereo unspecified),46.4 µg/mL
11,Clc1cccc(Cl)c1-c1noc(CN2CCOCC2)n1,31.8 µg/mL
12,CCCc1cc(C(=O)Nc2cc(Cl)ccc2O)no1,0.6 µg/mL
13,NS(=O)(=O)c1ccc(CCNC(=O)CN2CCCCC2)cc1,45.4 µg/mL
14,O=C(Nc1ccc(Nc2ccccc2)cc1)c1c(Cl)cccc1Cl,1.2 µg/mL
15,COc1ccc(CCNC(=O)COc2ccc(C)nc2[N+](=O)[O-])cc1,> 51.8 µg/mL
16,Cc1cn(C2CCC(CO)O2)c(=O)[nH]c1=O (stereo unspecified),> 33.9 µg/mL
17,CCOC(=O)CC(N)c1cccc([N+](=O)[O-])c1.Cl (stereo unspecified),> 41.2 µg/mL
18,Cc1ccc(NC(=O)C2=CN3CCS(=O)(=O)N=C3C=C2)cc1,12.7 µg/mL
19,COCc1c(C(=O)OCC(=O)Nc2ccc(OC(F)F)cc2)oc2ccccc12,13.4 µg/mL
20,COCCNC(=S)N1CCN(C)CC1.O=C(O)C(=O)O,> 46.1 µg/mL
21,O=[N+]([O-])c1cc([N+](=O)[O-])c2nonc2c1Nc1ccc(O)cc1,> 47.6 µg/mL
